Reference: US6514997B2, “Antipicornaviral compounds and compositions, their pharmaceutical uses, and materials for their synthesis” (Agouron Pharmaceuticals, Inc., priority 1999, dated 2003)
Where two headings read alike, the source gives them in different places.

Assays:
HRV-14 = test: Antirhinoviral H1-HeLa cell culture assay (XTT cell protection, EC50), HRV-14; assay type: cell-based, human rhinovirus (HRV) serotype-14 in H1-HeLa cells
Outline: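 H1-HeLa cells were infected with HRV-14 at m.o.i. 0.13, or mock-infected, and incubated with compound for two days. Cell protection was read by XTT/PMS formazan absorbance at 450/650 nm to give EC50. CC50 came from mock-infected cells, and TI = CC50/EC50.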

H1-HeLa cells = test: Cytotoxicity (CC50) in mock-infected H1-HeLa cells, XTT dye reduction; assay type: cell-based, human
Outline: (§1)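 H1-HeLa cells mock-infected, read by XTT/PMS formazan at 450/650 nm.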

[1] = system: Coxsackievirus type A-21 (CAV-21); test: Anticoxsackieviral cell culture assay (XTT, EC50), CAV-21; assay type: cell-based, coxsackievirus A-21 in H1-HeLa cells
Protocol: (§2) Anticoxsackieviral Cell Culture Assay:
(§3) Coxsackievirus types A-21 (CAV-21) and B3 (CVB3) were purchased from American Type Culture Collection (ATCC, Rockville, Md.). Virus stocks were propagated and antiviral assays were performed in H1-HeLa cells (ATCC). Cells were grown in minimal essential medium with 10% fetal bovine serum (Life Technologies, Gaithersburg, Md.). The ability of the compounds of this invention to protect cells against either CAV-21 or CVB3 infection was measured by the XTT dye reduction method. This method is described in Weislow et al., J. Natl. Cancer Inst. (1989), vol. 81, 577-586. H1-HeLa cells were infected with CAV-21 or CVB3 at a multiplicity of infection (m.o.i.) of 0.025 or 0.075, respectively, or mock-infected with medium only. H1-HeLa cells were plated at 4×10^4 cells per well in a 96-well plate and incubated with appropriate concentrations of the test compound. One day (CVB3) or two days (CAV-21) later, XTT/PMS was added to test plates and the amount of formazan produced was quantified spectrophotometrically at 450/650 nm. […] The therapeutic index (TI) was calculated by dividing the CC50 by the EC50.

[2] = system: Coxsackievirus type B3 (CVB3); test: Anticoxsackieviral cell culture assay (XTT, EC50), CVB3; assay type: cell-based, coxsackievirus B3 in H1-HeLa cells
Protocol: as §2, §3

[3] = molecular target: T1, Recombinant rhinovirus 3C protease, serotype 14 (Human rhinovirus 14, UniProt P03303); test: Inhibition of rhinovirus 3C protease (FRET assay, kobs/[I]), serotype 14; assay type: biochemical; details: pH 7.6, read-out: kobs/[I] (3C protease inhibition activity)
T1 construct: Recombinant rhinovirus 3C proteases; made in house
T1 sequence (P03303 1538-1719): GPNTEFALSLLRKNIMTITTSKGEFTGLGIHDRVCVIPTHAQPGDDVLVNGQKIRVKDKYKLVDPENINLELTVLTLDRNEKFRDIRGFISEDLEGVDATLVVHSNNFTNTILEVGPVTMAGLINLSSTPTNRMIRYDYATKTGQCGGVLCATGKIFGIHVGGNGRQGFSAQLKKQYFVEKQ
Outline: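 Enzyme-start FRET assay with ~1 μM DABCYL/EDANS peptide substrate and 50-100 nM recombinant protease in 50 mM tris pH 7.6, 1 mM EDTA, 2% DMSO. Cleavage followed as fluorescence increase; kobs/[I] derived from progress curves.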

[4] = system: strains of human rhinovirus (HRV); test: Antirhinoviral H1-HeLa cell culture assay (XTT cell protection, EC50), other HRV strains; assay type: cell-based, human rhinovirus in H1-HeLa cells; details: read-out: EC50
Outline: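 H1-HeLa cells infected, or mock-infected, were incubated with compounds for two days. Cell protection measured by XTT/PMS formazan absorbance at 450/650 nm; TI taken as CC50 divided by EC50.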

[5] = Cytotoxicity (CC50) in mock-infected H1-HeLa cells, XTT dye reduction; assay type: cell-based, human; details: human
Outline: as §1

[6] = system: Echovirus type 11 (ECHO 11); test: Anti-echoviral cell culture assay (XTT, EC50), ECHO 11; assay type: cell-based, echovirus 11 in MRC-5 cells; details: Enterovirus B, MRC5
Protocol: Anti-Echoviral and Anti-Enteroviral Cell Culture Assays
(§4) Echovirus type 11 (ECHO 11) was purchased from ATCC (Rockville, Md.). Virus stocks were propagated and antiviral assays were performed in MRC-5 cells (ATCC). Cells were grown in minimal essential medium with 10% fetal bovine serum (Life Technologies, Gaithersburg, Md.). The ability of the compounds of this invention to protect cells against ECHO 11 infection was measured by the XTT dye reduction method (Weislow et al., J. Natl. Cancer Inst. (1989), vol. 81, 577-586). MRC-5 cells were infected with ECHO 11 at an m.o.i. of 0.003 or 0.004, respectively, or mock-infected with medium only. Infected or uninfected cells were added at 1×10^4 cells per well and incubated with appropriate concentrations of compound. Four days later, XTT/PMS was added to test plates, and the amount of formazan produced was quantified spectrophotometrically at 450/650 nm. […] The therapeutic index (TI) was calculated by dividing the CC50 by the EC50. Activity of the compounds against enterovirus type 70 (EV 70) may be measured by the same assay as described above in this section. Enterovirus type 70 (EV 70) may be obtained from the American Type Culture Collection ATCC (Rockville, Md.).

[7] = Cytotoxicity (CC50) in uninfected MRC-5 cells, XTT dye reduction; assay type: cell-based, human; details: human, uninfected (mock-infected) MRC-5 cells; ECHO-11 (EV-11) row
Protocol: as §4

[8] = Human rhinovirus sp., HRV3, H1-HeLa, HRV-3
[9] = Human rhinovirus sp., HRV9, H1-HeLa, HRV-9
[10] = Human rhinovirus sp., HRV16, H1-HeLa, HRV-16
[11] = Human rhinovirus sp., HRV39, H1-HeLa, HRV-39
[12] = H1-HeLa cells, mock-infected, HRV-14
[13] = Human rhinovirus sp., HRV10, H1-HeLa, HRV-10
[14] = Human rhinovirus sp., HRV25, H1-HeLa, HRV-25
[15] = H1-HeLa cells, mock-infected, line of HRV-14
[16] = Rhinovirus B, HRV14, H1-HeLa, HRV-14, read-out: EC50

Row | SMILES | EC50 (HRV-14; Rhinovirus B, HRV14, H1-HeLa) [nM] | EC50 [4, 9] [nM] | EC50 [4, 10] [nM] | EC50 [4, 11] [nM] | CC50 at 2 days [5, 12] [nM] | kinact/KI ([3]; HRV-14) [M⁻¹ s⁻¹] | EC50 [4, 13] [nM] | EC50 [4, 14] [nM] | CC50 at 2 days [5, 15] [nM] | CC50 (H1-HeLa cells; line of HRV-9) [nM] | CC50 (H1-HeLa cells; line of HRV-10) [nM] | CC50 (H1-HeLa cells; line of HRV-16) [nM] | CC50 (H1-HeLa cells; line of HRV-25) [nM] | CC50 (H1-HeLa cells; line of HRV-39) [nM] | EC50 ([4]; H1-HeLa, HRV-1A) [nM] | CC50 (H1-HeLa cells; line of HRV-1A) [nM] | also measured
1 | Cc1cc(CCCCCOc2c(Cl)cc(C3=NCCO3)cc2Cl)on1 [WIN 54954, reference compound] |  |  |  |  |  |  |  |  |  |  |  |  |  |  |  |  | EC50 (HRV-14; HRV-14, read-out: EC50): 2130 nM; CC50 (H1-HeLa cells; CAV-21): > 100000 nM; CC50 (H1-HeLa cells; CVB3): > 100000 nM; CC50 (H1-HeLa cells; HRV-14): > 63000 nM; EC50 ([1]; CAV-21, H1-HeLa cells, read-out: EC50): > 100000 nM; EC50 ([2]; CVB3, H1-HeLa cells, read-out: EC50): > 100000 nM
2 | Cc1cc(C(=O)Nc2cccn([C@@H](Cc3ccccc3)C(=O)N[C@H](/C=C/C(=O)OC(C)C)C[C@@H]3CCNC3=O)c2=O)no1 [Compound 66, trans-(2′S,3′″″S,4S)-4-[2′-(3″-{[1′″-(5″″-Methylisoxazol-3″″-yl)methanoyl]amino}-2′″-oxo-2′″H-pyridin-1′″-yl)-3″-phenylpropanoylamino]-5-(2′″″-oxopyrrolidin-3′″″-yl)pent-2-enoic Acid Isopropyl Ester] | 155 | 196 | 11 | 22 | > 10000 |  |  |  |  |  |  |  |  |  |  |  | kinact/KI ([3]; HRV-14 3C protease): 480000 M⁻¹ s⁻¹; EC50 [4, 8]: 56 nM; EC50 ([4]; Human rhinovirus sp., HRV13, H1-HeLa, HRV-13): 57 nM; EC50 ([4]; Human rhinovirus sp., HRV78, H1-HeLa, HRV-78): 15 nM; CC50 (H1-HeLa cells; HRV-3): > 10000 nM; CC50 (H1-HeLa cells; HRV-9): > 10000 nM; CC50 (H1-HeLa cells; HRV-13): > 10000 nM; CC50 (H1-HeLa cells; HRV-16): > 10000 nM; CC50 (H1-HeLa cells; HRV-39): > 10000 nM; CC50 (H1-HeLa cells; HRV-78): > 10000 nM
3 | CC[C@@H](C(=O)N[C@H](/C=C/C(=O)OC(C)C)C[C@@H]1CCNC1=O)n1cccc(NC(=O)c2cc(C)on2)c1=O [Compound 52, trans-(2′S,3′″″S,4S)-4-[2′-(3″-{[1′″-(5″″-Methylisoxazol-3″″-yl)methanoyl]amino}-2′″oxo-2′″H-pyridin-1′″-yl)butanoylamino]-5-(2′″″-oxopyrrolidin-3′″″-yl)pent-2-enoic Acid Isopropyl Ester] | 181 | 473 | 280 | 337 |  | 36000 | 176 | 109 | > 10000 | > 10000 | > 10000 | > 10000 | > 10000 | > 10000 |  |  | 
4 | Cc1cc(C(=O)Nc2cccn([C@@H](Cc3ccc(F)c(F)c3)C(=O)N[C@H](/C=C/C(=O)OC3CCCCC3)C[C@@H]3CCNC3=O)c2=O)no1 [Compound 54, trans-(2′S,3″″″S,4S)-4-[3′-(3″,4″-Difluorophenyl)-2′-(3′″-{[1″″-(5′″″-methylisoxazol-3′″″-yl)methanoyl]amino}-2″″-oxo-2″″H-pyridin-1″″-yl)propanoylamino]-5-(2″″″-oxopyrrolidin-3″″″-yl)pent-2-enoic Acid Cyclohexyl Ester] | 45 | 517 | 142 | 346 |  | 244000 | 131 | 215 | > 10000 | > 10000 | > 10000 | > 10000 | > 10000 | > 10000 | 490 | > 10000 | EC50 ([4]; H1-HeLa, HRV-2): 148 nM; CC50 (H1-HeLa cells; line of HRV-2): > 10000 nM
5 | C#CC[C@@H](C(=O)N[C@H](/C=C/C(=O)OC(C)C)C[C@@H]1CCNC1=O)n1cccc(NC(=O)c2cc(C)on2)c1=O [Compound 50, trans-(2′S,3′″″S,4S)-4-[2′-(3″- {[1′″-(5″″-Methylisoxazol-3″″-yl)methanoyl]amino}-2′″-oxo-2′″H-pyridin-1′″-yl)pent-4″-ynoylamino]-5-(2′″″-oxopyrrolidin-3′″″-yl)pent-2-enoic Acid Isopropyl Ester] | 68 | 122 | 185 | > 1000 |  | 100000 | 750 | 371 | > 10000 | > 10000 | > 10000 | > 10000 | > 10000 | > 10000 | 200 | > 10000 | EC50 ([4]; H1-HeLa, HRV-2): 105 nM; EC50 [4, 8]: 117 nM; CC50 (H1-HeLa cells; line of HRV-2): > 10000 nM; CC50 (H1-HeLa cells; line of HRV-3): > 10000 nM
6 | CCOC(=O)/C=C/[C@H](CCC(N)=O)NC(=O)[C@H](Cc1ccccc1)n1cccc(NC(=O)C2SCCS2)c1=O [Compound 10, trans-(2′S,4S)-6-Carbamoyl-4-(2′-{3″-[([1′″,3′″]dithiolane-2′″-carbonyl)amino]-2″-oxo-2″H-pyridin-1″-yl}-3′-phenylpropionylamino)hex-2-enoic Acid Ethyl Ester] |  |  |  |  |  | 113000 | 1410 |  | > 10000 |  | > 10000 |  |  |  | 1180 | > 10000 | EC50 (HRV-14; [16]): 104 nM
7 | CC[C@@H](C(=O)N[C@H](/C=C/C(=O)OC1CCCCC1)C[C@@H]1CCNC1=O)n1cccc(NC(=O)c2cc(C)on2)c1=O [Compound 60, trans-(2′S,3′″″S,4S)-4-[2′-(3″-{[1′″-(5″″-Methylisoxazol-3″″-yl)methanoyl]amino}-2′″oxo-2′″H-pyridin-1′″-yl)butanoylamino]-5-(2′″″-oxopyrrolidin-3′″″-yl)pent-2-enoic Acid Cyclohexyl Ester] | 173 | 516 |  |  | > 10000 |  | 368 | 251 |  |  |  |  |  |  | 558 |  | kinact/KI ([3]; HRV-14 3C protease): 23000 M⁻¹ s⁻¹; CC50 (H1-HeLa cells; HRV-1A): > 10000 nM; CC50 (H1-HeLa cells; HRV-9): > 10000 nM; CC50 (H1-HeLa cells; HRV-10): > 10000 nM; CC50 (H1-HeLa cells; HRV-25): > 10000 nM
8 | Cc1cc(CCCOc2c(C)cc(-c3noc(C(F)(F)F)n3)cc2C)on1 [Pleconaril, reference compound] |  |  |  |  | > 10000 |  |  |  |  |  |  |  |  |  |  |  | EC50 (HRV-14; [16]): 10 nM; CC50 at 2 days ([5]; mock-infected (uninfected) H1-HeLa cells, CAV-21): > 10000 nM; CC50 at 1 day ([5]; mock-infected (uninfected) H1-HeLa cells, CVB3): > 10000 nM; EC50 ([1]; Coxsackievirus, H1-HeLa): 90 nM; EC50 ([2]; H1-HeLa): > 10000 nM; EC50 [6]: 160 nM; CC50 at 4 days [7]: > 10000 nM
